Data from US7947692B2, “Substituted thiazolo[5,4-d]pyrimidine urea derivatives” (Hoffmann-La Roche Inc., priority 2006, dated 2011).

Each compound was assayed against T1, human adenosine A2B receptor (Homo sapiens, UniProt P29275) (assay: Inhibitory activity on NECA-induced cyclic AMP production in CHO.K1 cells expressing human adenosine A2B receptor). Conditions: 100 nM NECA, cAMP (HitHunter kit), 30-45 min incubation.
T1 construct: expressed in transfected cells; host or cells: CHO.K1
T1 sequence (P29275 1-332): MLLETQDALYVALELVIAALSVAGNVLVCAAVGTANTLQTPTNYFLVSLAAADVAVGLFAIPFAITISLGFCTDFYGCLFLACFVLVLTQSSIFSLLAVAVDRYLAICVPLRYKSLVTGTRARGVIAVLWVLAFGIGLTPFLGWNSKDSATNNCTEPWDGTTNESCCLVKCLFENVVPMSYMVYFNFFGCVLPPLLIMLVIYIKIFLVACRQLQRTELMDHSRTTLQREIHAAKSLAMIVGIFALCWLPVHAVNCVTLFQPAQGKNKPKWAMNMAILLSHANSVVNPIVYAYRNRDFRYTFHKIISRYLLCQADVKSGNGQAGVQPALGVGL
Assay type: cell-based
Protocol: Cells were cultured under 5%CO2/95% […] atmosphere at 37° C. in DMEM and D-MEM/F-12 (1:1 mixture) medium (Invitrogen, Grand Island, N.Y.) with 10% fetal calf serum (Invitrogen, Grand Island, N.Y.), 100 U/mL penicillin (Invitrogen, Grand Island, N.Y.), 100 U/mL streptomycin (Invitrogen, Grand Island, N.Y.), 1 mg/mL G418 (Invitrogen, Grand Island N.Y.) and 0.2 mg/mL Hygromycin B (Invitrogen, Carlsbad, Calif.). Experimental cultures were grown overnight as a monolayer in 384-well tissue culture plates (0.06 ml/well-7500 cells/well). Each well was washed once with 0.1 mL of Krebs buffer. To each well was added 50 uL of Krebs buffer containing 100 uM of the phosphodiesterase inhibitor 4-(3-butoxy-4-methoxybenzyl)-2-imidazolidinone, 100 nM NECA (Sigma-Aldrich, St. Louis, Mo.), 0.02% BSA Fraction V (Roche Biochemicals), the test compound (appropriate concentration). The final concentration of DMSO was 1.1%. After incubation for 30-45 min, the wells were emptied and blotted on paper towel to remove residual solution. The HitHunter™ cAMP Assay Kit from DiscoverX for adherent cells (Fremont, Calif.) was used for lysing the cells and measuring cAMP concentrations.
In the case of `COC(=O)c1ccccc1S(=O)(=O)C1CCN(C(=O)Nc2nc3c(OC)ncnc3s2)CC1` [Example 76, 2-[1-(7-Methoxy-thiazolo[5,4-d]pyrimidin-2-ylcarbamoyl)-piperidine-4-sulfonyl]-benzoic acid methyl ester], the IC50 is reported as 73 nM. `COc1ncnc2sc(NC(=O)N3CCN(Cc4cccc(C(F)(F)F)c4)CC3)nc12` [Example 1, 4-(3-trifluoromethyl-benzyl)-piperazine-1-carboxylic acid (7-methoxy-thiazolo[5,4-d]pyrimidin-2-yl)-amide] showed an IC50 of 5 nM. For `CCOC(=O)C1(Cc2ccc(OC(F)(F)F)cc2)CCCN(C(=O)Nc2nc3c(OC)ncnc3s2)C1` (centres unmarked) [Example 54, 1-(7-Methoxy-thiazolo[5,4-d]pyrimidin-2-ylcarbamoyl)-3-(4-trifluoromethoxy-benzyl)-piperidine-3-carboxylic acid ethyl ester], the IC50 was 1460 nM. `COc1ncnc2sc(NC(=O)N3CCC(N4CCCC4c4ccccc4)CC3)nc12` (centres unmarked) [Example 62, 4-(2-Phenyl-pyrrolidin-1-yl)-piperidine-1-carboxylic acid (7-methoxy-thiazolo[5,4-d]pyrimidin-2-yl)-amide] showed an IC50 of 218 nM. In the case of `COc1ncnc2sc(NC(=O)N3CC[C@H](NC(=O)c4ccc(F)c(C(F)(F)F)c4)C3)nc12` [Example 89, (S)-3-(4-fluoro-3-trifluoromethyl-benzoylamino)-pyrrolidine-1-carboxylic acid (7-methoxy-thiazolo[5,4-d]pyrimidin-2-yl)-amide], the IC50 is reported as 4 nM. Work on `COc1ncnc2sc(NC(=O)N3CCc4cc(C(F)(F)F)ccc4C3)nc12` [Example 95, 6-Trifluoromethyl-3,4-dihydro-1H-isoquinoline-2-carboxylic acid (7-methoxy-thiazolo[5,4-d]pyrimidin-2-yl)-amide] yielded an IC50 of 115 nM. Compound `COC(=O)c1cccc(CN2CCN(C(=O)Nc3nc4c(OC)ncnc4s3)CC2)c1` [Example 10, 3-[4-(7-Methoxy-thiazolo[5,4-d]pyrimidin-2-ylcarbamoyl)-piperazin-1-ylmethyl]-benzoic acid methyl ester] has an IC50 of 30 nM. In the case of `COc1ncnc2sc(NC(=O)N3CCN(Cc4cccc(OCCO)c4)CC3)nc12` [Example 16, 4-[3-(2-Hydroxy-ethoxy)-benzyl]-piperazine-1-carboxylic acid (7-methoxy-thiazolo[5,4-d]pyrimidin-2-yl)-amide], the IC50 is reported as 197 nM. `COc1ncnc2sc(NC(=O)N3CCC(n4c(=O)[nH]c5ccccc54)CC3)nc12` [Example 57, 4-(2-Oxo-2,3-dihydro-benzoimidazol-1-yl)-piperidine-1-carboxylic acid (7-methoxy-thiazolo[5,4-d]pyrimidin-2-yl)-amide] gave an IC50 of 52 nM. `COc1ncnc2sc(NC(=O)N3CC=C(c4cccc(C(F)(F)F)c4)CC3)nc12` [Example 67, 4-(3-Trifluoromethyl-phenyl)-3,6-dihydro-2H-pyridine-1-carboxylic acid (7-methoxy-thiazolo[5,4-d]pyrimidin-2-yl)-amide] was tested, and the IC50 was 51 nM. Compound `COc1ncnc2sc(NC(=O)N3CCC4(CC3)CN(S(C)(=O)=O)c3ccc(Cl)cc34)nc12` [Example 48, 5-Chloro-1,2-dihydro-N-(7-methoxythiazole[5,4-d]pyrimidin-2-yl)-1-(methylsulfonyl)spiro[3H-indole-3,4′-piperidine]-1′-carboxamide] has an IC50 of 9 nM. With `COc1ncnc2sc(NC(=O)N3CCC(NCc4ccc(F)c(C(F)(F)F)c4)C3)nc12` (stereo in doubt) [Example 87, (R)-3-(4-Fluoro-3-trifluoromethyl-benzylamino)-pyrrolidine-1-carboxylic acid (7-methoxy-thiazolo[5,4-d]pyrimidin-2-yl)-amide] the IC50 was 2 nM. With `COc1ncnc2sc(NC(=O)N3CCC4(CC3)C(=O)NC[C@H]4c3ccc(F)cc3)nc12` [Example 31, 4-(4-Fluoro-phenyl)-1-oxo-2,8-diazaspiro[4,5]decane-8-carboxylic acid(7-methoxy-thiazolo[5,4-d]pyrimidin-2-yl)-amide] the IC50 was 9 nM. `COc1ncnc2sc(NC(=O)N3CCN(Cc4cccc(C(=O)O)c4O)CC3)nc12` [Example 27, 2-Hydroxy-3-[4-(7-methoxy-thiazolo[5,4-d]pyrimidin-2-ylcarbamoyl)-piperazin-1-ylmethyl]-benzoic acid] was tested, and the IC50 was 1560 nM.
